Data set [1] has as its system lipid peroxidation. Briefly: Lipid peroxidation inhibition (method of Ohkawa). Format: biochemical. Conditions: for Lipid Peroxidation % Inhibition: 10 uM.
In data set [2] the test system is Human neuroblastoma SKN-SH cells, resistant to doxorubicin. Nature of the data set: Chemoresistance: cancer cell viability (MTT) in presence or absence of doxorubicin. Format: cell-based. Conditions: compound 50 ug/mL, MTT. The method in brief:
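Doxorubicin-resistant SKN-SH neuroblastoma cells, selected by stepwise exposure to 10^−9–10^−6 M doxorubicin over 3 months, in DMEM/10% FBS at 37 °C. Treated with doxorubicin alone or with hydroxylamine for 72 h (96 h in one variant). MTT read at 570 nm, survival relative to untreated cells.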

Data set [3] deals with Angiogenesis in CAM model. Briefly: Neovascularization on the CAM (chick chorioallantoic membrane model of angiogenesis). Type of data set: in vivo, chicken. The settings on record: for Percent inhibition of angiogenesis in CAM model at 30 ug: unit assumed. The method in brief:
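Chick CAM of 10-day embryos given filter disks pretreated with cortisone acetate and saturated with bFGF (1 μg/ml) or other pro-angiogenic factors. After 24-48 hr, 10-25 ul test agent was injected intravenously or applied topically. After 3 days at 37° C, vessel branch points under each disk were counted at 50× (8 CAMs/group) and converted to % inhibition relative to positive and negative controls.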

The test system of data set [4] is TNF-alpha. Briefly: LPS induced TNF-alpha inhibition (whole blood / THP-1 cells, ELISA). Type of data set: cell-based, human. The protocol:
Following incubation with LPS, PBS was added (800 uL) and samples were spun for 10 minutes at 1500 g. […] TNFα protein concentrations were measured using R&D Systems high sensitivity ELISA kit.
The lipid peroxidation assay method of Ohkawa, H.; Ohishi, N.; Yaki, K. Anal. Biochem. 1979, 95, 351 was used to evaluate TNF α. […] Cells were induced with 25 ng/mL LPS for another 3 hrs. Cells were collected and spun at 1500 g for 10 minutes. Supernatant was collected and analyzed for TNFα.
OT-551 was used in both native form and in the form of nanoparticles. […] Other nitrogenous heterocyclic species of the invention are expected to show similar improvement in efficacy when disposed in nanoparticulate form.

Structures are written as SMILES. Read-outs that look alike come from different tables or passages of the source.

The text below walks through data of patent US20080280890A1, “HYDROXYLAMINE COMPOUNDS AND METHODS OF THEIR USE” (priority 2007, published 2008).

For orientation: melting point means the temperature, or range, at which the solid turns liquid. In general, IC50 refers to the midpoint of a concentration-inhibition curve.

On to `COC1CC(C)(C)N(O)C(C)(C)C1.Cl` [Compound 1, 1-hydroxy-4-methoxy-2,2,6,6-tetramethylpiperidine], for which, in data set [1], the “% Lipid Peroxidation inhibition (at 1 uM)” value is reported as 74.1% and the “Lipid Peroxidation % Inhibition” value was found to be 90.8%. The “Mean OD (×10^−3), cancer cell viability” value in data set [2] (Dox. 10^−6 M present (+)) is reported as 246.50 ×10^−3. Moreover, the “Mean OD (×10^−3), cancer cell viability” value in data set [2] (Dox. absent (−)) is on record as 524.75 ×10^−3. In data set [3], this compound returned a Percent inhibition of angiogenesis in CAM model at 30 ug of 89.9%.

With `CC(=O)NC1CC(C)(C)N(O)C(C)(C)C1.Cl` [Compound 2, 1-hydroxy-4-acetamido-2,2,6,6-tetramethylpiperidine], the melting point is 180.5 °C (dec.). In addition, the “Lipid Peroxidation % Inhibition” value in data set [1] is on record as 81.0%. Besides, the “Mean OD (×10^−3), cancer cell viability” value in data set [2] (Dox. 10^−6 M present (+)) is listed as 249.25 ×10^−3. The “Mean OD (×10^−3), cancer cell viability” value in data set [2] (Dox. absent (−)) is 496.33 ×10^−3. In data set [3], this compound returned a Percent inhibition of angiogenesis in CAM model at 30 ug of 76%.

Regarding `CC1(C)CC(N2CCOCC2)CC(C)(C)N1O.Cl` [Compound 3, 4-(2,2,6,6-tetramethylpiperidin-1-hydroxy-4-yl)morpholine], in data set [1], the “Lipid Peroxidation % Inhibition” value turned out to be 77.8%. The “Mean OD (×10^−3), cancer cell viability” value is reported as 289.50 ×10^−3 in data set [2] (Dox. 10^−6 M present (+)) and 640.25 ×10^−3 in data set [2] (Dox. absent (−)). Besides, the Percent inhibition of angiogenesis in CAM model at 30 ug in data set [3] turned out to be 54.7%.

On to `CC1(C)CC(=O)CC(C)(C)N1O` [Compound 5, 1-Hydroxy-2,2,6,6-tetramethyl-piperidin-4-one], for which the inhibition at 10 µM in data set [4] (Homo sapiens, THP-1, read-out: Mean Percent Inhibition of TNF-alpha using 5 ng/mL LPS) was found to be 66 ± 7%. Also, the half-maximal inhibitory concentration (IC50) in data set [4] (Homo sapiens, THP-1, read-out: TNFalpha IC50 (uM)) is 22.2 µM. Also, in data set [1], the “% Lipid Peroxidation inhibition (at 1 uM)” value amounted to 71.0% and the “Lipid Peroxidation % Inhibition” value amounted to 86.3%. The “Mean OD (×10^−3), cancer cell viability” value in data set [2] (Dox. 10^−6 M present (+)) is given as 245.50 ×10^−3. In data set [2] (Dox. absent (−)), the “Mean OD (×10^−3), cancer cell viability” value is listed as 556.50 ×10^−3.

As for `CC1C(O)C(C)C(C)(C)N(O)C1(C)C.Cl` (stereo not drawn) [Compound 6, 2,2,3,5,6,6-Hexamethyl-piperidine-1,4-diol], the melting point was 191.5 °C (dec.). Besides, in data set [1], the “% Lipid Peroxidation inhibition (at 1 uM)” value is 70.5% and the “Lipid Peroxidation % Inhibition” value is given as 89.0%. In addition, the “Mean OD (×10^−3), cancer cell viability” value in data set [2] (Dox. 10^−6 M present (+)) is 185.25 ×10^−3. The “Mean OD (×10^−3), cancer cell viability” value in data set [2] (Dox. absent (−)) is reported as 367.00 ×10^−3. Also, in data set [3], the Percent inhibition of angiogenesis in CAM model at 30 ug was found to be 40.4%.

Take `CC1(C)CC(O)C(C)(C)N1O` (stereo not drawn) [Compound 7, 2,2,5,5-Tetramethyl-Pyrrolidine-1,3-diol]: in data set [1], the “Lipid Peroxidation % Inhibition” value is given as 82.9%. For the same compound, the “Mean OD (×10^−3), cancer cell viability” value in data set [2] (Dox. 10^−6 M present (+)) is 241.25 ×10^−3; in data set [2] (Dox. absent (−)) it was 540.25 ×10^−3. In addition, in data set [3], the Percent inhibition of angiogenesis in CAM model at 30 ug amounted to 100%.

For `CC1(C)CC(NS(C)(=O)=O)CC(C)(C)N1O` [Compound 10, 1-hydroxy-4-methanesulfonamido-2,2,6,6-tetramethylpiperidine], in data set [1], the “Lipid Peroxidation % Inhibition” value came out at 85.8%. For the same compound, the “Mean OD (×10^−3), cancer cell viability” value is 250.00 ×10^−3 in data set [2] (Dox. 10^−6 M present (+)) and 456.00 ×10^−3 in data set [2] (Dox. absent (−)). The compound further gave a Percent inhibition of angiogenesis in CAM model at 30 ug in data set [3] of 78.2%.

`CC1(C)CC(NC(=O)N2CCOCC2)CC(C)(C)N1O.Cl` [Compound 11, N-(2,2,6,6-tetramethylpiperidin-1-hydroxyl-4-yl)morpholine-4-carboxamide]: the melting point was 158.1 °C (dec.). The “Lipid Peroxidation % Inhibition” value in data set [1] is given as 82.7%. In addition, in data set [2] (Dox. 10^−6 M present (+)), the “Mean OD (×10^−3), cancer cell viability” value was 267.25 ×10^−3. For the same compound, in data set [2] (Dox. absent (−)), the “Mean OD (×10^−3), cancer cell viability” value is on record as 470.25 ×10^−3. Further, the Percent inhibition of angiogenesis in CAM model at 30 ug in data set [3] worked out at 71%.

As to `CC1(C)c2ccc(C(=O)O)cc2C(C)(C)N1O.Cl` [Compound 15, 1,1,3,3-tetramethylisoindolin-2-hydroxyl-5-carboxylic acid], the melting point was 225.5 °C (dec.). Also, in data set [1], the “% Lipid Peroxidation inhibition (at 1 uM)” value was 88.0% and the “Lipid Peroxidation % Inhibition” value is 94.6%. Moreover, in data set [3], the Percent inhibition of angiogenesis in CAM model at 30 ug amounted to 71.8%.

Regarding `CC1(C)COCC(C)(C)N1O.Cl` [Compound 20, 3,3,5,5-1-hydroxy-tetramethylmorpholine], the melting point was 184.6 °C (dec.). Further, in data set [1], the “Lipid Peroxidation % Inhibition” value is 90.2%. Further, in data set [2] (Dox. 10^−6 M present (+)), the “Mean OD (×10^−3), cancer cell viability” value was 107.5 ×10^−3. The “Mean OD (×10^−3), cancer cell viability” value in data set [2] (Dox. absent (−)) is 515.50 ×10^−3. For the same compound, the Percent inhibition of angiogenesis in CAM model at 30 ug in data set [3] was 78.6%.

With `CC1(C)C=C(C(N)=O)C(C)(C)N1O` [Compound 23, 2,5-dihydro-2,2,5,5-tetramethyl-1H-pyrrole-3-carboxamide-1-hydroxy], in data set [4] (read-out: TNFalpha IC50), the IC50 came out at 87.4 µM. Besides, the “Mean OD (×10^−3), cancer cell viability” value is reported as 416.25 ×10^−3 in data set [2] (Dox. 10^−6 M present (+)) and 1432.50 ×10^−3 in data set [2] (Dox. absent (−)). This compound yielded a Percent inhibition of angiogenesis in CAM model at 30 ug in data set [3] of 48.8%.

For the compound `CC1(C)CC(C(N)=O)C(C)(C)N1O` (stereo not drawn) [Compound 24, 1-hydroxy-2,2,5,5-tetramethylpyrrolidine-3-carboxamide], the “% Lipid Peroxidation inhibition (at 1 uM)” value in data set [1] stood at 37.0%. Also, the “Mean OD (×10^−3), cancer cell viability” value in data set [2] (Dox. 10^−6 M present (+)) is 362.00 ×10^−3; in data set [2] (Dox. absent (−)), 1166.50 ×10^−3. The compound also showed a Percent inhibition of angiogenesis in CAM model at 30 ug in data set [3] of 65.8%.

On to `CC1(C)C=C(CO)CC(C)(C)N1O.Cl` [Compound 25], for which the “% Lipid Peroxidation inhibition (at 1 uM)” value in data set [1] was 42.0%. Also, the “Mean OD (×10^−3), cancer cell viability” value was 325.00 ×10^−3 in data set [2] (Dox. 10^−6 M present (+)) and 1137.50 ×10^−3 in data set [2] (Dox. absent (−)). The compound further yielded a Percent inhibition of angiogenesis in CAM model at 30 ug in data set [3] of 62.9%.

For `Cc1cc(O)c(O)cc1C(=O)NC1CC(C)(C)N(O)C(C)(C)C1.Cl` [Compound 27, 4,5-dihydroxy-2-methyl-N-(1-hydroxy-2,2,6,6-tetramethylpiperidin-4-yl)benzamide], in data set [1], the “% Lipid Peroxidation inhibition (at 1 uM)” value stood at 53.4%. Also, the “Mean OD (×10^−3), cancer cell viability” value in data set [2] (Dox. 10^−6 M present (+)) is listed as 403.75 ×10^−3; in data set [2] (Dox. absent (−)) it was 1038.33 ×10^−3. Also, in data set [3], the Percent inhibition of angiogenesis in CAM model at 30 ug is 88.3%.

Turning to `CC(C)(C)c1cc(NC(=O)C2CC(C)(C)N(O)C(C)(C)C2)cc(C(C)(C)C)c1O.Cl` [Compound 29, N-(3,5-di-tert-butyl-4-hydroxyphenyl)-1-hydroxy-2,2,6,6-tetramethylpiperidine-4-carboxamide], in data set [1], the “% Lipid Peroxidation inhibition (at 1 uM)” value is on record as 92.3%. Besides, the “Mean OD (×10^−3), cancer cell viability” value in data set [2] (Dox. 10^−6 M present (+)) was 105.75 ×10^−3; in data set [2] (Dox. absent (−)) it was 1328.00 ×10^−3. The Percent inhibition of angiogenesis in CAM model at 30 ug in data set [3] was found to be 100%.

For the compound `CC1(C)CC(CO)C(C)(C)N1O.Cl` (stereo not drawn) [Compound 33], in data set [1], the “% Lipid Peroxidation inhibition (at 1 uM)” value was 54.9%. Besides, the “Mean OD (×10^−3), cancer cell viability” value in data set [2] (Dox. 10^−6 M present (+)) is reported as 300.00 ×10^−3; in data set [2] (Dox. absent (−)), 1237.50 ×10^−3. Besides, in data set [3], the Percent inhibition of angiogenesis in CAM model at 30 ug is 77.8%.

Regarding `CC1(C)CC(Oc2nsnc2C#N)CC(C)(C)N1O` [Compound 45], the “% Lipid Peroxidation inhibition (at 1 uM)” value in data set [1] is reported as 91.5%. The “Mean OD (×10^−3), cancer cell viability” value in data set [2] (Dox. 10^−6 M present (+)) is recorded as 276.50 ×10^−3; in data set [2] (Dox. absent (−)) it was 1063.33 ×10^−3. The same compound registered a Percent inhibition of angiogenesis in CAM model at 30 ug in data set [3] of 50%.

For the compound `CC1(C)CC(O)CC(C)(C)N1O` [TEMPOL-H, 2,2,6,6-tetramethylpiperidine-1,4-diol, reference compound], the inhibition at 10 µM in data set [4] (Homo sapiens, THP-1, compound 10 uM, 5 ng/mL LPS, read-out: Mean Percent Inhibition of TNF-alpha using 5 ng/mL LPS) was 74 ± 8%. In data set [3] (H2O2 induced angiogenesis, FIG. 1), the “effect of H2O2 in the CAM model” value was “dose dependent effect”.
